≈ marks a conversion by molar mass, not a printed value. Like-named read-outs stand apart in the source and are kept apart here.
Assays:
[1] = test system: KB (human epidermoid carcinoma of the nasopharynx); assay: in vitro cytotoxicity against human tumor cell replication, KB; type: cell-based; details: for EC50: read-out: ED50 (the source's name)
Excerpt: (§1) Cancer cell used in cytotoxicity evaluation in vitro were all from human, including lung cancer cell line (A549), breast cancer cell line (MCF-7), ovarian cancer cell line (1A9), epidermoid nasopharyngeal carcinoma cell line (KB), vincristine-resistant cells (KB-VIN), melanoma cancer cell line (SK-MEL-2), ileocecal cancer cell line (HCT-8), renal carcinoma cell line (CAKI), bone cancer cell line (HOS), et al. the anti-cancer ability of the compound represented by half-effective amount (ED50). Control drug was V16 (Etoposide).

[2] = test system: 1A9 (human ovarian carcinoma); assay: in vitro cytotoxicity against human tumor cell replication, 1A9; type: cell-based; details: for EC50: read-out: ED50 (the source's name)
Excerpt: as §1

[3] = test system: A549 (human lung carcinoma); assay: in vitro cytotoxicity against human tumor cell replication, A549; type: cell-based; details: for EC50: read-out: ED50 (the source's name)
Excerpt: as §1

[4] = test system: KB-VIN (vincristine-resistant KB cells, multi-drug resistant expressing P-glycoprotein); assay: in vitro cytotoxicity against human tumor cell replication, KB-VIN; type: cell-based; details: for EC50: read-out: ED50 (the source's name)
Excerpt: as §1

[5] = test system: MCF-7 (breast cancer cell line); assay: in vitro cytotoxicity against human tumor cell replication, MCF-7; type: cell-based
Excerpt: as §1

in vivo = details: both sexes, Kunming, mouse, in vivo, Kunming mice, single vein injection, half male/half female
Procedure: (§2) The tumor activity […] testing represented by acute toxicity test and tumor-inhibiting testing of mice S180, Method: LD50 of desmosdumotin C to Kunming mice by vein route was obtained by the general acute toxicity test method. Sarcoma S180 was hypodermic inoculated to mice, drug administrated, compared drug group with control group, inhibition rate was calculated, P value show the statistical difference. […].

Kunming mice = assay: in vivo; details: for Death Rate: Kunming, mouse, in vivo, iv, 14 days
Procedure: as §2

Sarcoma S180 = assay: tumor-inhibiting test of mice S180; type: in vivo, Kunming mice; details: for Inhibition Rate: S180 tumor growth
Procedure: as §2

[6] = test system: KB-VIN (vincristine-resistant KB cells, multi-drug resistant expressing P-glycoprotein); details: background section; cited from earlier work
[7] = test system: MCF-7 (breast cancer cell line); details: background section; cited from earlier work
[8] = test system: 1A9 (human ovarian carcinoma); details: IA9 ovarian cancer cell; background section; cited from earlier work
[9] = test system: KB (human epidermoid carcinoma of the nasopharynx); details: parent KB cell line; background section; cited from earlier work
human tumor cell lines = assay: in vitro evaluation against a panel of several cancer cell lines; type: cell-based
Excerpt: as §1

Compound: COC1=C(C)C(=O)C(=C(O)C=Cc2ccc(O)cc2)C(=O)C1(C)C [Compound 6, 2-[1′-Hydroxy-3-(4-hydroxyphenyl)-allylidene]-5-methoxy-4,6,6-trimethyl-cyclohex-4-ene-1,3-dione]
- EC50 ([1]; Homo sapiens): 11.6 µM
- EC50 ([2]; Homo sapiens): 8.86 µM
- EC50 ([3]; Homo sapiens): 9.48 µM
- EC50 ([4]; Homo sapiens, KBVIN): 11.6 µM

Compound: COC1=C(C)C(=O)C(=C(O)C=Cc2cccs2)C(=O)C1(C)C [Compound 8, 2-(1′-Hydroxy-3′-thiophen-2″-yl-allylidene)-5-methoxy-4,6,6-trimethyl-cyclohex-4-ene-1,3-dione]
- EC50 [1]: 17.2 µM
- EC50 [2]: 12.5 µM
- EC50 [3]: 14.1 µM
- EC50 [4]: 10.7 µM

Compound: CC1=C(O)C(C)(C)c2oc(-c3ccccc3)cc(=O)c2C1=O [Desmosdumotin B, 7-hydroxyl-6,8,8-trimethyl-2-phenyl-8H-chromene-4,5-dione]
- ED50 [1]: >40 µg/mL
- ED50 [5]: >5 µg/mL
- ED50 [2]: 36.0 µg/mL (≈ 121 µM)
- ED50 [3]: 28.0 µg/mL (≈ 94.5 µM)
- ED50 [4]: 2.0 µg/mL (≈ 6.75 µM)

Compound: COC1=CC(=O)c2c(oc(-c3ccccc3)cc2=O)C1(C)C [Compound 14, 7-methoxy-8,8-dimethyl-2-phenyl-8H-chromene-4,5-dione]
- ED50 [1]: 1.8 µg/mL (≈ 6.07 µM)
- ED50 [2]: 0.7 µg/mL (≈ 2.36 µM)
- ED50 [3]: 2.0 µg/mL (≈ 6.75 µM)

Compound: CC1=C(O)C(C)(C)C(=O)/C(=C(O)\C=C\c2ccccc2)C1=O [Compound 12, 2-[(1′-hydroxy-2′-ene-3′-phenyl)propenylene]-5-hydroxy-4,6,6-trimethyl-1,3-cyclohexene(4,5)-dione]
- ED50 [1]: 10.5 µg/mL (≈ 35.2 µM)
- ED50 [5]: > 5 µg/mL
- ED50 [2]: 8.0 µg/mL (≈ 26.8 µM)
- ED50 [3]: 9.0 µg/mL (≈ 30.2 µM)
- ED50 [4]: 6.5 µg/mL (≈ 21.8 µM)

Compound: COC1=C(C)C(=O)C(=C(O)C=Cc2ccc(OC)cc2)C(=O)C1(C)C [Compound 5, 2-[1′-Hydroxy-3-(4-methoxyphenyl)-allylidene]-5-methoxy-4,6,6-trimethyl-cyclohex-4-ene-1,3-dione]
- EC50 ([1]; Homo sapiens): 9.62 µM
- EC50 ([2]; Homo sapiens): 7.28 µM
- EC50 ([3]; Homo sapiens): 6.99 µM
- EC50 ([4]; Homo sapiens, KBVIN): 8.16 µM

Compound: COC1=C(C)C(=O)C(=C(O)C=Cc2ccccc2)C(=O)C1(C)C [Compound 13, 2-[(1′-hydroxy-2′-ene-3′-phenyl)propenylene)-5-methoxy-4,6,6-trimethyl-1,3-cyclohexene (4,5)-diketone]
- ED50 [1]: 4.1 µg/mL (≈ 13.1 µM)
- ED50 [5]: > 5 µg/mL
- ED50 [2]: 3.63 µg/mL (≈ 11.6 µM)
- ED50 [3]: > 5 µg/mL
- ED50 [4]: 2.9 µg/mL (≈ 9.28 µM)

Compound: COC1=C(C)C(=O)/C(=C(O)/C=C/c2ccccc2)C(=O)C1(C)C [Desmosdumotin C, 2-[(1′-hydroxy-2′-ene-3′-phenyl)propenylene]-5-methoxy-4,6,6-trimethyl-1,3-cyclohexene (4,5)-dione]
- LD50 (in vivo; read-out: LD50): > 46 mg/kg
- LD50 (in vivo; read-out: LD50 (95% CL)): 39.8 to 53.1 mg/kg
- LD50 (Kunming mice; Kunming mice, single vein injection, half male/half female): 46.0 mg/kg
- Death Rate (Kunming mice; both, 32.8 mg/kg): 0%
- Death Rate (Kunming mice; both, 40.96 mg/kg): 40%
- Death Rate (Kunming mice; both, 51.2 mg/kg): 70%
- Death Rate (Kunming mice; both, 64 mg/kg): 90%
- Death Rate (Kunming mice; both, 80 mg/kg): 100%
- Death Rate (Kunming mice; female, 32.8 mg/kg): 0%
- Death Rate (Kunming mice; female, 40.96 mg/kg): 40%
- Death Rate (Kunming mice; female, 51.2 mg/kg): 80%
- Death Rate (Kunming mice; female, 64 mg/kg): 80%
- Death Rate (Kunming mice; female, 80 mg/kg): 100%
- Death Rate (Kunming mice; male, 32.8 mg/kg): 0%
- Death Rate (Kunming mice; male, 40.96 mg/kg): 40%
- Death Rate (Kunming mice; male, 51.2 mg/kg): 60%
- Death Rate (Kunming mice; male, 64 mg/kg): 100%
- Death Rate (Kunming mice; male, 80 mg/kg): 100%
- Tumor Weight X ± SD (Sarcoma S180; S180, 2.5 mg/kg iv × 10qd): 1.99 ± 0.18
- Tumor Weight X ± SD (Sarcoma S180; S180, 5 mg/kg iv × 10qd): 1.62 ± 0.22
- Tumor Weight X ± SD (Sarcoma S180; S180, 10 mg/kg iv × 10qd): 1.51 ± 0.21
- Inhibition Rate (Sarcoma S180; 2.5 mg/kg iv × 10qd): 30.18%
- Inhibition Rate (Sarcoma S180; 5 mg/kg iv × 10qd): 43.16%
- Inhibition Rate (Sarcoma S180; 10 mg/kg iv × 10qd): 47.02%
- ED50 [6]: < 5.6 µg/mL
- ED50 [7]: < 3.8 µg/mL
- EC50 ([1]; Homo sapiens): 20.8 µM
- ED50 [8]: < 4.0 µg/mL
- EC50 ([5]; Homo sapiens, MCF7, read-out: ED50 (the source's name)): 12.8 µM
- EC50 ([2]; Homo sapiens): 12.8 µM
- ED50 [9]: < 6.5 µg/mL
- EC50 ([4]; Homo sapiens, KBVIN): 17.9 µM

Compound: COC1=C(C)C(=O)C(=C(O)C=Cc2ccco2)C(=O)C1(C)C [Compound 7, 2-(3′-Furan-2″-yl-1′-hydroxy-allylidene)-5-methoxy-4,6,6-trimethyl-cyclohex-4-ene-1,3-dione]
- EC50 [1]: 32.7 µM
- EC50 [2]: 26.1 µM
- EC50 [3]: 33 µM
- EC50 [4]: 29 µM

Compound: COC1=C(C)C(=O)C(=C(O)C=Cc2cccc(OC)c2)C(=O)C1(C)C [Compound 4, 2-[1′-Hydroxy-3-(3-methoxyphenyl)-allylidene]-5-methoxy-4,6,6-trimethyl-cyclohex-4-ene-1,3-dione]
- anti-tumor activity compared with the leading compound (human tumor cell lines; versus desmosdumotin C): more significant anti-tumor activity than the leading compound
- EC50 ([1]; Homo sapiens): 9.62 µM
- ED50 [2]: 0.7 µg/mL (≈ 2.04 µM)
- EC50 ([2]; Homo sapiens): 8.45 µM
- EC50 ([3]; Homo sapiens): 8.16 µM
- EC50 ([4]; Homo sapiens, KBVIN): 6.99 µM

Compound: COC1=C(C)C(=O)C(=C(O)C=Cc2ccccc2OC)C(=O)C1(C)C [Compound 3, 2-[1′-Hydroxy-3-(2-methoxyphenyl)-allylidene]-5-methoxy-4,6,6-trimethylcyclohex-4-ene-1,3-dione]
- activity relative to desmosdumotin C (human tumor cell lines; fold of desmosdumotin C): 4 times
- EC50 ([1]; Homo sapiens): 10.5 µM
- EC50 ([2]; Homo sapiens): 8.16 µM
- EC50 ([3]; Homo sapiens): 8.74 µM
- EC50 ([4]; Homo sapiens, KBVIN): 8.45 µM

Compound: COC1=C(C)C(=O)C(=C(O)C=Cc2nccs2)C(=O)C1(C)C [Compound 9]
- EC50 [1]: 13.4 µM
- EC50 [2]: 10.9 µM
- EC50 [3]: 10.9 µM
- EC50 [4]: 9.37 µM

Compound: COC1=C(C)C(=O)C(=C(O)C=Cc2ccc(Br)cc2)C(=O)C1(C)C [Compound 2, 2-[1′-Hydroxy-3-(4-bromophenyl)-allylidene]-5-methoxy-4,6,6-trimethylcyclohex-4-ene-1,3-dione]
- EC50 ([1]; Homo sapiens): 4.33 µM
- EC50 ([2]; Homo sapiens): 2.8 µM
- EC50 ([3]; Homo sapiens): 3.57 µM
- EC50 ([4]; Homo sapiens, KBVIN): 4.84 µM

Compound: CC1=C(O)C2=C(OC(c3ccccc3)CC2=O)C(C)(C)C1=O (stereo not drawn) [Compound 11, 7-hydroxyl-6,8,8-trimethyl-2-phenyl-2,3-dihydrogen-8H-chromene-4,5-dione]
- ED50 [1]: 10.5 µg/mL (≈ 35.2 µM)
- ED50 [5]: >5 µg/mL
- ED50 [2]: 8.0 µg/mL (≈ 26.8 µM)
- ED50 [3]: 13.5 µg/mL (≈ 45.3 µM)
- ED50 [4]: 7.5 µg/mL (≈ 25.1 µM)
